Entries after “also recorded” stand apart in the source; their conditions may differ.
Tested on: cultured neurons
Experiment: not given
Conditions: continuous application, 100 μM; cited from earlier work

| Compound | axonal transport of membrane-bound organelles in anterograde and retrograde directions |
| --- | --- |
| Nc1ncnc2c1ncn2[C@@H]1O[C@H](COP(=O)(O)OP(=O)(O)OP(=O)(O)O)[C@@H](O)[C@H]1O [ATP, Adenosine 5′-triphosphate] | significantly increased |
| O=c1ccn([C@@H]2O[C@H](COP(=O)(O)OP(=O)(O)OP(=O)(O)O)[C@@H](O)[C@H]2O)c(=O)[nH]1 [Uridine 5′-triphosphate] | effect similar to ATP |

Tested on: not listed separately
Experiment: Neural protective effect of colloid osmotic agents and Polypeptides (stated, no method given)
Conditions: general statement, no experiment described

| Compound | protecting the CNS tissue (neural protective effect) |
| --- | --- |
| Collagen | effective |
| Dextran | ineffective; also recorded: do not confer neuroprotective effect |
| Hetastarch | ineffective |
| albumin | effective |

Reference: patent publication US7387798B2, “Method and composition for resuscitation” (priority 2004, dated 2008)
